Results on 51 compounds are retold here after ChEMBL document CHEMBL1148842, “Discovery of novel, non-acidic 1,5-biaryl pyrrole EP1 receptor antagonists” (Bioorg Med Chem Lett, 2007).

In the experiment the target is T1, Prostaglandin E2 receptor EP1 subtype (Homo sapiens, UniProt P34995).
T1 sequence (P34995 whole entry): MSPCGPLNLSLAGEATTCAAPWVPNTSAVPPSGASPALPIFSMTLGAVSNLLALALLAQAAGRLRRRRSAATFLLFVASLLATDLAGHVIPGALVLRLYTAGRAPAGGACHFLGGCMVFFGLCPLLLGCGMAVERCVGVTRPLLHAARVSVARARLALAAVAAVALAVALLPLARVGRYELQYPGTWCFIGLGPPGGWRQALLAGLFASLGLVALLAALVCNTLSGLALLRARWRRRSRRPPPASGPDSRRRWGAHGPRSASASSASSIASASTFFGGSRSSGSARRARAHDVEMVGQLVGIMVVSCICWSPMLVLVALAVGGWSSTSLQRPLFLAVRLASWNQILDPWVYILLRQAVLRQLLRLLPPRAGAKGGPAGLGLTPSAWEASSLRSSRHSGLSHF
The experiment in a line: Displacement of [3H]PGE2 from human recombinant EP1 receptor expressed in CHO cells. The experiment is classed as cell-based.

Structures are written as SMILES. pIC50: −log10 of the molar value.

Regarding `Cc1ccc(-c2cc(Br)ccc2OCc2ccc(F)cc2F)n1-c1ccc(C(N)=O)cc1`, the pIC50 (commonly the IC50 on a negative log10 scale, so that one unit is a factor of ten) is 8.10.

As to `Cc1ccc(-c2cc(Br)ccc2OCc2ccccc2)n1-c1ccc(S(C)(=O)=O)cc1`, the pIC50 was 7.50.

Take `Cc1ccc(-c2cc(Cl)ccc2OCc2ccccc2)n1-c1cccc(C(=O)NCc2ccccc2)c1`: the negative-log IC50 (pIC50) is 7.60. With `Cc1ccc(-c2cc(Cl)ccc2OCc2ccccc2)n1-c1ccc(C(=O)NCc2ccccn2)cc1` the figure was 8.60. With `Cc1ccc(-c2cc(Br)ccc2OCc2ccc(F)cc2F)n1-c1cccc(-c2ncccn2)c1` the figure was 6.90; with `Cc1ccc(-c2cc(Br)ccc2OCc2ccc(F)cc2F)n1-c1cccc(C(=O)NS(C)(=O)=O)c1`, 8.40. Turning to `Cc1ccc(-c2cc(Cl)ccc2OCc2ccccc2)n1-c1ccc(-n2cncn2)cc1`, the negative-log IC50 (pIC50) was 6.30. With `Cc1ccc(-c2cc(Cl)ccc2OCc2ccccc2)n1-c1cccc(C(=O)N[C@H](C)c2ccccc2)c1` the figure was 7.40; with `Cc1ccc(-c2cc(Cl)ccc2OCc2ccccc2)n1-c1ccc(S(C)(=O)=O)cc1`, 7.70; with `Cc1ccc(-c2ccccc2OCc2ccc(F)cc2F)n1-c1ccc2nn[nH]c2c1`, 6.20. On to `Cc1ccc(-c2cc(Br)ccc2OCc2ccc(F)cc2F)n1-c1cccc(-c2cccnc2)c1`, for which the negative logarithm of the IC50 (pIC50) was 6.90. With `Cc1ccc(-c2cc(Cl)ccc2OCc2ccccc2)n1-c1cccc(C(=O)NS(=O)(=O)c2ccccc2)c1`, the pIC50 is 8.60.

As for `Cc1ccc(-c2cc(Br)ccc2OCc2ccc(F)cc2F)n1-c1ccc(C(=O)NC(C)(C)C)cc1`, the pIC50 was 7.80. In the case of `Cc1ccc(-c2cc(Br)ccc2OCc2ccccc2)n1-c1cccc(S(C)(=O)=O)c1`, the negative-log IC50 (pIC50) is 6.70. Under `Cc1ccc(-c2cc(Cl)ccc2OCc2ccccc2)n1-c1ccc(S(=O)(=O)NC(=O)c2ccccc2)cc1` stands 8.10; under `Cc1ccc(-c2cc(Br)ccc2OCc2ccc(F)cc2F)n1-c1ccc(-c2cnc[nH]2)cc1`, 7.40; under `Cc1ccc(-c2cc(Br)ccc2OCc2ccc(F)cc2F)n1-c1cccc(C(=O)N(C)C)c1`, 8.00.

In the case of `Cc1ccc(-c2ccccc2OCc2ccccc2)n1-c1ccc(S(C)(=O)=O)cc1`, the pIC50 is 6.30. Under `Cc1ccc(-c2cc(Cl)ccc2OCc2ccccc2)n1-c1cccc(C(=O)NCc2ccccn2)c1` stands 7.30. With `Cc1ccc(-c2cc(Br)ccc2OCc2ccc(F)cc2F)n1-c1ccc2c(c1)C(=O)NC2=O` the figure was 6.80; with `Cc1ccc(-c2cc(Cl)ccc2OCc2ccccc2)n1-c1ccc2nn[nH]c2c1`, 7.60; with `Cc1ccc(-c2cc(Cl)ccc2OCc2ccccc2)n1-c1cccc(S(C)(=O)=O)c1`, 6.90. Under `Cc1ccc(-c2ccccc2OCc2ccccc2)n1-c1cccc(S(C)(=O)=O)c1` stands less than 6.00; under `Cc1ccc(-c2cc(Cl)ccc2OCc2ccccc2)n1-c1ccc(C(=O)N[C@H](C)c2ccccc2)cc1`, 8.80; under `Cc1nnc(-c2cccc(-n3c(C)ccc3-c3cc(Br)ccc3OCc3ccc(F)cc3F)c2)o1`, 7.40. With `CC(=O)Nc1cccc(-n2c(C)ccc2-c2cc(Cl)ccc2OCc2ccccc2)c1`, the pIC50 is 7.20. Under `Cc1ccc(-c2cc(Cl)ccc2OCc2ccccc2)n1-c1cccc(C(N)=O)c1` stands 7.20; under `Cc1ccc(-c2ccccc2OCc2ccccc2)n1-c1cccc(C(=O)NS(=O)(=O)c2ccccc2)c1`, 8.60. As for `Cc1ccc(-c2cc(Cl)ccc2OCc2ccccc2)n1-c1ccc(C(=O)NCc2ccccc2)cc1`, the pIC50 is 7.60.

With `Cc1ccc(-c2cc(Cl)ccc2OCc2ccccc2)n1-c1ccc(C(=O)NCc2ccncc2)cc1`, the negative logarithm of the IC50 (pIC50) was 7.20. Under `Cc1ccc(-c2cc(Cl)ccc2OCc2ccccc2)n1-c1ccc2cn[nH]c2c1` stands 7.40. Consider `Cc1ccc(-c2cc(Br)ccc2OCc2ccc(F)cc2F)n1-c1cccc(C(O)(C(F)(F)F)C(F)(F)F)c1`, for which the pIC50 is 7.60. Take `CNC(=O)c1ccc(-n2c(C)ccc2-c2cc(Br)ccc2OCc2ccc(F)cc2F)cc1`: the pIC50 was 8.40.

On to `Cc1nc(-c2cccc(-n3c(C)ccc3-c3cc(Br)ccc3OCc3ccc(F)cc3F)c2)no1`, for which the pIC50 was 6.70. Under `Cc1ccc(-c2cc(Cl)ccc2OCc2ccccc2)n1-c1cccc(C(=O)NCc2ccncc2)c1` stands 7.20.

Regarding `Cc1ccc(-c2cc(Cl)ccc2OCc2ccccc2)n1-c1cccc(S(=O)(=O)NC(=O)c2ccccc2)c1`, the pIC50 is 7.10. With `Cc1ccc(-c2ccccc2OCc2ccc(F)cc2F)n1-c1cccc(C(N)=O)c1` the figure was 6.30; with `Cc1ccc(-c2cc(Br)ccc2OCc2ccc(F)cc2F)n1-c1cccc(-c2nc3ccccc3[nH]2)c1`, 7.20; with `Cc1ccc(-c2cc(Cl)ccc2OCc2ccccc2)n1-c1ccc(C(=O)NCc2cccnc2)cc1`, 7.90. Under `CCN(CC)C(=O)c1ccc(-n2c(C)ccc2-c2cc(Br)ccc2OCc2ccc(F)cc2F)cc1` stands 7.30; under `Cc1ccc(-c2cc(Cl)ccc2OCc2ccccc2)n1-c1cccc(C(=O)N[C@@H](C)c2ccccc2)c1`, 6.50.

Turning to `Cc1ccc(-c2cc(Br)ccc2OCc2ccc(F)cc2F)n1-c1cccc(-c2ccccn2)c1`, the pIC50 was 6.60. Under `Cc1ccc(-c2cc(Cl)ccc2OCc2ccccc2)n1-c1ccc(S(N)(=O)=O)cc1` stands 7.70; under `Cc1noc(C)c1S(=O)(=O)NC(=O)c1cccc(-n2c(C)ccc2-c2ccccc2OCc2ccccc2)c1`, 8.30; under `Cc1ccc(-c2cc(Cl)ccc2OCc2ccccc2)n1-c1ccc(C(=O)N[C@@H](C)c2ccccc2)cc1`, 8.30. In the case of `CNC(=O)c1cccc(-n2c(C)ccc2-c2cc(Br)ccc2OCc2ccc(F)cc2F)c1`, the negative logarithm of the IC50 (pIC50) is 7.70. Under `Cc1ccc(-c2cc(Cl)ccc2OCc2ccccc2)n1-c1cccc(C(=O)NCc2cccnc2)c1` stands 7.20; under `Cc1cc(=O)[nH]c2cc(-n3c(C)ccc3-c3cc(Cl)ccc3OCc3ccccc3)ccc12`, 7.20; under `Cc1ccc(-c2cc(Cl)ccc2OCc2ccccc2)n1-c1ccc2[nH]ncc2c1`, 7.40. Under `Cc1ccc(-c2cc(Br)ccc2OCc2ccc(F)cc2F)n1-c1ccc(C(=O)N(C)C)cc1` stands 7.80; under `Cc1ccc(-c2cc(Br)ccc2OCc2ccc(F)cc2F)n1-c1cccc(C(=O)Nc2ccccc2)c1`, 6.30.
